{
  "source": "paper PMC6934184",
  "about": "“Selective DNA-PKcs inhibition extends the therapeutic index of localized radiotherapy and chemotherapy” (The Journal of Clinical Investigation, 2019)",
  "target": "T1, BMPR1A (ALK3) (Homo sapiens, UniProt P36894)",
  "T1 construct": "purchased Thermo Fisher Scientific (Life Technologies) SelectScreen",
  "T1 sequence (P36894 24-532)": "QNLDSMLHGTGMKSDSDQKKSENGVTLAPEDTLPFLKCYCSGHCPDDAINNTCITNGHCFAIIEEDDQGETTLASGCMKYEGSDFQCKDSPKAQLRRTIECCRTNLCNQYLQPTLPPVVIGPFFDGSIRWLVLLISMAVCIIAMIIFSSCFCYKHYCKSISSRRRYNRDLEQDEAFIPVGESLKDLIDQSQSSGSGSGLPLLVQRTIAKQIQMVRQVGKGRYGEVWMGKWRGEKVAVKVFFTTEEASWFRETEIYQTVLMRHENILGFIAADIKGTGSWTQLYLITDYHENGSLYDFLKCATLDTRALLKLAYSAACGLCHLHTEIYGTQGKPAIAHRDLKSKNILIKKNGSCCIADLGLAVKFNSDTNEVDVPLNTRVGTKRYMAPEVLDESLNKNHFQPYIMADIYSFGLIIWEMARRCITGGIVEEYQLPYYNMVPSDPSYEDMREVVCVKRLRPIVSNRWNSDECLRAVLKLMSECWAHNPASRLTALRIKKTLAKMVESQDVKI",
  "assay": "SelectScreen LanthaScreen",
  "assay_type": "binding",
  "conditions": "read-out: % displacement",
  "summary_of_the_method": "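NU5455 was profiled across the SelectScreen Broad panel of kinase activity and binding assays. Z'LYTE reactions such as CSF1R ran at apparent Km ATP, while the Adapta CAMK1 assay used ATP listed as 10. Values are given as percent.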",
  "data": [
    {"smiles": "CN(C(=O)CN1CCOCC1)c1ccc2sc3c(-c4cccc5c(=O)cc(N6CC7CCC(C6)O7)oc45)cccc3c2c1", "note": "[NU5455]", "values": [
      {"measurement": "inhibition at 1 µM", "result": -4.4, "unit": "%"}
    ]}
  ]
}
